# According to patent publication US20020013306A1, “TERPYRIDINE-PLATINUM(II) COMPLEXES” (priority 1996, published 2002):
# Several values for one entry are separate records, joined by “and”; a condition that tells them apart may be missing. Equal values may be shown once. Read-outs that look alike come from different tables or passages of the source.
# Tests used:
# [1] = system: CH1dox^R human ovarian carcinoma cell line (doxorubicin resistant); experiment: 96 h growth inhibition, sulforhodamine B assay, CH1doxR; type: cell-based; conditions: for IC50: 96 h exposure, growth inhibition; for RF resistance factor: IC50 resistant line/IC50 parent line: CH1dox^R / CH1
# [2] = system: A2780cis^R human ovarian carcinoma cell line (cisplatin resistant); experiment: 96 h growth inhibition, sulforhodamine B assay, A2780cisR; type: cell-based; conditions: for IC50: 96 h exposure, growth inhibition, v = variable (mean); for RF resistance factor: IC50 resistant line/IC50 parent line: A2780cis^R / A2780
# [3] = system: CH1 human ovarian carcinoma cell line; experiment: 96 h growth inhibition, sulforhodamine B assay, CH1; type: cell-based; conditions: 96 h exposure, v = variable (mean)
# [4] = system: CH1cis^R human ovarian carcinoma cell line (cisplatin resistant); experiment: 96 h growth inhibition, sulforhodamine B assay, CH1cisR; type: cell-based; conditions: for IC50: 96 h exposure, growth inhibition, v = variable (mean); for RF resistance factor: IC50 resistant line/IC50 parent line: CH1cis^R / CH1
# [5] = system: A2780 human ovarian carcinoma cell line; experiment: 96 h growth inhibition, sulforhodamine B assay, A2780; type: cell-based; conditions: 96 h exposure, v = variable (mean)
# [6] = system: SKOV3 human ovarian carcinoma cell line; experiment: 96 h growth inhibition, sulforhodamine B assay, SKOV3; type: cell-based; conditions: 96 h exposure, v = variable (mean)
# [7] = system: T. brucei (S427) bloodstream trypomastigotes; experiment: Trypanosoma brucei bloodstream trypomastigote culture; type: cell-based
# [8] = system: T. cruzi (MHOM/BR/00/Y); experiment: Trypanosoma cruzi in mouse peritoneal macrophages; type: cell-based
# Procedure: Trypanosoma cruzi: […] Drug activity was determined from the % of infected macrophages in treated cultures. Nifurtimox was used as the positive control.
# [9] = system: P falciparum (chloroquin resistant strain K1); experiment: In vitro antimalarial activity, chloroquine resistant K1; conditions: for % Inhibition, MQ, K1 P. falciparum: duplicates
# Procedure: Plasmodium falciparum: P falciparum (chloroquin resistant strain K1) was cultured at 37° C. in a 5% suspension of infected so erythrocytes (group A Rh^+) in complete medium as described by E L Elueze, S L Croft and D C Warhurst, J Antimicrobial Chemotherapy, 1996, 37, 511-518. The in vitro antimalarial activity of compounds were likewise determined according to their protocol. Mefloquin was used as the positive control.”
Compound,IC50 [1] [µM],RF resistance factor: IC50 resistant line/IC50 parent line [1],IC50 [2] [µM],RF resistance factor: IC50 resistant line/IC50 parent line [2],IC50 [3] [µM],IC50 [4] [µM],RF resistance factor: IC50 resistant line/IC50 parent line [4],IC50 [5] [µM],IC50 [6] [µM],"% Inhibition, Trypanosoma brucei ([7]; 0.1 μM) [%]","% Inhibition, Trypanosoma brucei ([7]; 0.3 μM) [%]","% Inhibition, Trypanosoma brucei ([7]; 1 μM) [%]","% Inhibition, Trypanosoma brucei ([7]; 3 μM) [%]","% Inhibition, Trypanosoma brucei ([7]; 10 μM) [%]","% Inhibition, Trypanosoma brucei ([7]; 30 μM) [%]","% Inhibition, Trypanosoma cruzi ([8]; 1 μM) [%]",further results
"4,4′-Vinylidenedipyridine bis[2,2′:6′,2″-terpyridine platinum II] tetrafluoroborate [Compound A14]",5.1,3.8,2.4,1.5,1.35,0.63,0.46,1.6,1.3,–,–,–,–,–,–,–,–
"4,4′-Vinylidenedipyridine bis[4′-(4-bromophenyl)-2,2′:6′,2″-terpyridine platinum II]tetrafluoroborate [Compound Q14]",1.9,0.9,2.3,–,2,2.8,1.4,–,4.7,–,–,–,–,–,–,–,–
"4,4′-Vinylidenedipyridine bis[4′-chloro-2,2′:6′,2″-terpyridine platinum II]tetrafluoroborate [Compound I14]",7.8,0.5,19,–,15,17,1.1,–,15,–,–,–,–,–,–,–,–
"4-Picoline 4′-amino-2,2′:6′,2″-terpyridine platinum II tetrafluoroborate [X]",17,1.1,21,0.8,15.1,16.5,1.1,25,25,0,0,100,100,100,100,–,–
Brc1cc[n+]([Pt-2]23[n+]4ccccc4-c4cccc([n+]42)-c2cccc[n+]23)cc1.F[B-](F)(F)F.F[B-](F)(F)F [Compound A1],0.85,0.41,6.7,1.16,2.1,2.1,1.0,5.8,9.2,100,100,100,100,100,100,–,"% Inhibition, Trypanosoma brucei ([7]; 0.03 μM): 100%"
CC(=O)c1cc[n+]([Pt-2]23[n+]4ccccc4-c4cccc([n+]42)-c2cccc[n+]23)cc1.F[B-](F)(F)F.F[B-](F)(F)F [Compound A2],1.18,0.54,7.5,1.25,2.2,2.3,1.05,5.9,11.1,62.7,86.4,100,100,100,100,3.8,"% Inhibition, Trypanosoma brucei ([7]; 0.03 μM): 50.0%"
CN(C)c1cc[n+]([Pt-2]23[n+]4ccccc4-c4cccc([n+]42)-c2cccc[n+]23)cc1.F[B-](F)(F)F.F[B-](F)(F)F [Compound A3],3.95,0.6,21.5,1.3,6.1,7.5,1.2,16,13,44.6,100,100,100,100,100,30.3,"% Inhibition, Trypanosoma cruzi ([8]; 3 μM): 85.8%; % Inhibition, Trypanosoma cruzi ([8]; 10 μM): 100%; % Inhibition, Trypanosoma cruzi ([8]; 30 μM): 99.8%"
F[B-](F)(F)F.F[B-](F)(F)F.Fc1cccc[n+]1[Pt-2]12[n+]3ccccc3-c3cccc([n+]31)-c1cccc[n+]12 [Compound A4],5.4,0.3,> 100,–,15.5,14,0.9,21.5,> 100,–,–,100,100,100,100,3.0,"% Inhibition, Trypanosoma cruzi ([8]; 3 μM): 6.0%; % Inhibition, Trypanosoma cruzi ([8]; 10 μM): 93%"
F[B-](F)(F)F.F[B-](F)(F)F.Fc1ccc[n+]([Pt-2]23[n+]4ccccc4-c4cccc([n+]42)-c2cccc[n+]23)c1 [Compound A5],6.1,0.3,> 100,–,17,17,1,19.5,> 100,–,–,100,100,100,100,2.0,"% Inhibition, Trypanosoma cruzi ([8]; 3 μM): 6.5%; % Inhibition, Trypanosoma cruzi ([8]; 10 μM): 43.8%"
F[B-](F)(F)F.F[B-](F)(F)F.OCc1cc[n+]([Pt-2]23[n+]4ccccc4-c4cccc([n+]42)-c2cccc[n+]23)cc1 [Compound A9],5,0.3,92,2.3,14,12.5,0.9,40,17,32.5,100,100,100,100,100,–,–
"Brc1ccc(-c2cc(-c3ccccn3)nc(-c3ccccn3)c2)cc1.F[B-](F)(F)F.F[B-](F)(F)F.N.[Pt+2] [Compound Q12, Ammonio 4′-(4-bromophenyl)-2,2′:6′,2″-terpyridine platinum II tetrafluoroborate]",–,–,–,–,–,–,–,–,–,100,100,100,100,100,100,–,–
"OC(c1cc(C(F)(F)F)nc2c(C(F)(F)F)cccc12)C1CCCCN1 (centres unmarked) [MQ, Mefloquin, reference compound]",–,–,–,–,–,–,–,–,–,–,–,–,–,–,–,–,"% Inhibition, MQ, K1 P. falciparum ([9]; Concn. MQ 0.015625 μM): 0%; % Inhibition, MQ, K1 P. falciparum ([9]; Concn. MQ 0.0626 μM): 77.5% and 56.9%; % Inhibition, MQ, K1 P. falciparum ([9]; Concn. MQ 0.5 μM): 96.4% and 95.3%; % Inhibition, MQ, K1 P. falciparum ([9]; Concn. MQ 1 μM): 94.9% and 91.6%; % Inhibition, MQ, K1 P. falciparum ([9]; Concn. MQ 2 μM): 96.3% and 94.7%; % Inhibition, MQ, K1 P. falciparum ([9]; Concn. MQ 025 μM): 98.0% and 97.2%; % Inhibition, MQ, K1 P. falciparum ([9]; Concn. MQ 003125 μM): 0.5% and 0%; % Inhibition, MQ, K1 P. falciparum ([9]; Concn. MQ): 93.6% and 94.8%; IC50 ([9]; read-out: IC50 (avg), K1 P. falciparum, average of duplicates): 0.06 µM; IC50 ([9]; read-out: IC50, K1 P. falciparum, each duplicate (1),(2)): 0.05 µM and 0.06 µM"
"Cc1ccncc1.F[B-](F)(F)F.F[B-](F)(F)F.OCCNc1cc(-c2ccccn2)nc(-c2ccccn2)c1.[Pt+2] [U, (4-Picoline)(4′-(N-2-Hydroxyethyl)amino-2,2′:6′,2″-Terpyridine) Platinum (II) Tetrafluoroborate]",–,–,–,–,–,–,–,–,–,0,0,0,68.4,100,100,0,"% Inhibition, Trypanosoma cruzi ([8]; 3 μM): 0%; % Inhibition, Trypanosoma cruzi ([8]; 10 μM): 0%; % Inhibition, Trypanosoma cruzi ([8]; 30 μM): 18.0%"
"N.N.[Cl][Pt][Cl] [cisplatin, cis[Pt(NH3)2Cl2], reference compound]",–,–,8.8,–,0.4,1.2,–,0.53,2.25,–,–,–,–,–,–,–,–
"CC1CS(=O)(=O)CCN1/N=C/c1ccc([N+](=O)[O-])o1 (centres unmarked) [nifurtimox, Nifurtimox, reference compound]",–,–,–,–,–,–,–,–,–,–,–,–,–,–,–,–,"EC50 ([8]; Trypanosoma cruzi, Peritoneal macrophage, read-out: ED50 against Trypanosoma cruzi): 3 µM"
"Ammonio 4′-chloro-2,2′:6′,2″-terpyridine platinum II tetrafluoroborate [Compound I12]",–,–,–,–,–,–,–,–,–,0,0,100,100,100,100,–,–
